Tests used:
NRF2 and HSF1 = experiment: Western blot of NRF2 and HSF1 in nuclear extracts of NB4 cells; assay type: cell-based; conditions: 1 μM fenretinide, within 6 hours
Source text: Transcriptome analysis of fenretinide-induced apoptosis in leukemia cell lines facilitated in-depth mining of biological information relevant to oxidative stress-mediated apoptosis, including the prediction of upstream transcription factors potentially involved in gene regulation. Of several dozens of transcriptional regulators predicted, stress-responsive transcription factors NRF2 and HSF1 are of particular interest for understanding how oxidative signaling is translated into downstream effects. NRF2 is known as a key regulator of intracellular redox balance, activating genes encoding antioxidative proteins under oxidative stress (Jaiswal, 2004; D'Autreaux and Toledano, 2007). Although HSF1 is commonly recognized as a heat-shock motivated transcription factor (Hayashida et al., 2006), it can also be activated by oxidative stress under certain circumstances (Ahn and Thiele, 2003). We therefore further investigated the temporal abundance and spatial localization of there two stress-responsive transcription factors during fenretinide-induced apoptosis in NB4 cells. […] The induction of NRF2 was extended beyond the 24 hour whereas HSF1 induction was terminated at this time point. […] Also, nuclear gathering of NRF2 was sustained beyond the 24 hour treatment whereas that of HSF1 was terminated. […]

HL60 cells = experiment: Mitochondrial transmembrane potential (MTP) assay, Rh123/PI, HL60 cells; assay type: cell-based; conditions: serum-deprived quiescent versus proliferating HL60 cells, fenretinide
Method: HL60 cells were cultured in RPMI 1640 supplemented (i) with or (ii) without 10% fetal bovine serum to obtain proliferating and quiescent leukemia cells respectively. Serum-deprived quiescent leukemic cells and proliferating leukemic cells were then cultured in media containing 0.5% FBS, and treated with 1 μM and 2.5 μM fenretinide, and also with chemotherapeutics as controls, 20 μM idarubicin (IDA) and 5 μM cytarabine (Ara-C).
To examine the effects of fenretinide on proliferating and quiescent leukemia cells, HL60 cells were chosen as serum deprived quiescent leukemic cell model obtained when incubated in RPMI 1640 without serum for 48 h, with G0/G1 phase cells (being in quiescent state) accounting up to 59.9%. Serum-deprived quiescent leukemic cells and proliferating leukemic cells were then cultured in media containing 0.5% FBS, and treated with 1 μM and 2.5 μM fenretinide, and also with chemotherapeutics as controls, 20 μM idarubicin (IDA) and 5 μM cytarabine (Ara-C). […] Fenretinide induces intracellular production of ROS, lowers mitochondrial transmembrane potential (MTP), and eventually leads to apoptosis in a variety of malignancies. We measured MTP induced by fenretinide in proliferating and quiescent HL60 cells, as examined through rhodamine 123 and propidium iodide staining and followed by flow cytometry analysis. […] We further measured intracellular ROS abundance induced by fenretinide. […] After incubation with 1 μM and 2.5 μM fenretinide for 3 h, the ROS level of proliferating cells increased by 1.77 and 2.6 fold, respectively.

## CC1=C(/C=C/C(C)=C/C=C/C(C)=C/C(=O)Nc2ccc(O)cc2)C(C)(C)CCC1 [fenretinide, N-(4-hydroxyphenyl)retinamide]
NRF2 and HSF1
  protein levels of NRF2 and HSF1 in nuclear extracts: markedly elevated
HL60 cells
  mitochondrial transmembrane potential (MTP): more significant reduced MTP
